Biological target: T1, IRAK4 (Homo sapiens, UniProt Q9NWZ3)
T1 construct: endogenous in cells; host or cells: THP-1 cells
T1 sequence (Q9NWZ3 1-460): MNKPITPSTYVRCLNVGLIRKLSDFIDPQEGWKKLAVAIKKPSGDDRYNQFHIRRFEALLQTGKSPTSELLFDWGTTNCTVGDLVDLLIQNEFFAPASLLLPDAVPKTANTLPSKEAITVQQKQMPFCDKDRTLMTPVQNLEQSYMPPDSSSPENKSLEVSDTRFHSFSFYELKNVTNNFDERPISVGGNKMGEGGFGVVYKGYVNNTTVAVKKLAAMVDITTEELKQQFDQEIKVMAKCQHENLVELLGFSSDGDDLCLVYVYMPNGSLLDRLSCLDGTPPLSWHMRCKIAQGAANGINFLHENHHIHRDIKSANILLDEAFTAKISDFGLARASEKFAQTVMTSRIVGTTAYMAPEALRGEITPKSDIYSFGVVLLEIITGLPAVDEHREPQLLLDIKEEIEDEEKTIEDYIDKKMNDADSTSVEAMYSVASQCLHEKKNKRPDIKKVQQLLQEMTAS
Assay: ALE THP1 HTRF (Advanced Lipoxidation End Product THP1 Homogeneous Time Resolved Fluorescence)
Type: cell-based
Settings: THP1 cells
Procedure: For Homogenous Time Resolved Fluorescence (HTRF) assays, a Cisbio HTRF kit was used, which included: Lysis Buffer #1 4×, Blocking Reagent #3 100×, 20× Antibody 1 (Anti-IRAK4 d2), 20× Antibody 2 (Anti-IRAK4 k), and Detection Buffer.
4× Lysis Buffer was stored at 4° C. For use as 1× Lysis buffer, the 4× solution was diluted with de-ionized water (distilled water, Gibco Cat. #15230279) and 100× Blocking Reagent in a 1:3:0.04 volume ratio.
20× Antibody Solution aliquots were stored in −80° C. and the Detection Buffer was stored in 4° C. For use as a 1× Antibody Solution, the 20× Antibody Solution aliquot was diluted with Detection Buffer in a 1:19 volume ratio.
Cells were lysed at room temperature for 45 min with shaking. A BCA protein assay was performed and normalization was conducted to the desired total protein concentration with 1× lysis buffer. Next, 1× Antibody Solutions were prepared by adding 380 μL Detection Buffer to 20 μL 20× Antibody Solution aliquots and mixing well. 1× Antibody Solutions were combined 1:1 and briefly vortexed. For control wells, 20 μL 1× anti IRAK4-k Antibody Solution was saved. The 384-well plate (ProxiPlate-384 Plus, Perkin Elmer Cat. #6008289) was loaded by adding 4 μL of the mixed Antibody Solution to empty wells using a single channel repeater. Using a multi-channel repeater, 16 μL lysate was added per well, and any bubbles that were formed were popped with 20 μL pipette tips and Kimwipe edges. In column 10, triplicates of each control was prepared. In wells A10, B10, and C10, buffer control was prepared by adding 16 μL Lysis Buffer and 4 μL Detection Buffer. In wells D10, E10, and F10, cryptate control was prepared by adding 16 μL Lysis Buffer, 2 μL Detection Buffer, and 2 μL 1× anti IRAK4-k Antibody Solution. In wells G10, H10, and I10, a negative control was prepared by adding 16 μL Lysis Buffer and 4 μL mixed Antibody Solution. The plate was sealed with a clear seal and covered with an aluminum lid. The plate was spun down at 800 g for 5 min and incubated in the dark at room temperature overnight. The next day, the plate was spun down at 800 g for 5 min. The samples were analyzed by a plate reader (Envision, PerkinElmer) using the Desnor 384 HTRF program.

ALE THP1 HTRF YMIN [%] | EC50 [nM] | SMILES
11.4 | 62 | N#Cc1cnn2c(-c3cc(NC4CCCC4)c(C(=O)NC4CCC(CCN5CCN(c6ccc(C7CCC(=O)NC7=O)cc6)CC5)CC4)cn3)ccc2c1 (centres unmarked) [P-75]
8.3 | 7 | CC1(Nc2cc(-n3ncc4cc(C#N)cnc43)ncc2C(=O)NC2CCC(CCN3CCN(c4ccc(C5CCC(=O)NC5=O)cc4)CC3)CC2)CC1 (centres unmarked) [P-76]
11.3 | 28 | CC(Nc1cc(-n2ncc3cc(C#N)cnc32)ncc1C(=O)NC1CCC(CCN2CCN(c3ccc(C4CCC(=O)NC4=O)cc3)CC2)CC1)C(F)(F)F (centres unmarked) [P-77]
7.6 | 9 | C[C@@H](CO)Nc1cc(-n2ncc3cc(C#N)cnc32)ncc1C(=O)NC1CCC(CCN2CCN(c3ccc(C4CCC(=O)NC4=O)cc3)CC2)CC1 (some centres unmarked) [P-78]
12.2 | 43 | COc1cc(N2CCN(CCC3CCC(NC(=O)c4cnc(-n5ncc6cc(C#N)cnc65)cc4NC4CC4)CC3)CC2)ccc1C1CCC(=O)NC1=O (centres unmarked) [P-79]
7.3 | 26 | COc1cc(C2CCC(=O)NC2=O)ccc1N1CCN(CCC2CCC(NC(=O)c3cnc(-n4ncc5cc(C#N)cnc54)cc3NC3CC3)CC2)CC1 (centres unmarked) [P-80]
10.7 | 73 | CC(C)(C[C@H]1CC[C@H](NC(=O)c2cnc(-n3ncc4cc(C#N)cnc43)cc2NC2CCCC2)CC1)N1CCN(c2ccc(C3CCC(=O)NC3=O)cc2)CC1 (some centres unmarked) [P-81, 6-(5-cyano-1H-pyrazolo[3,4-b]pyridin-1-yl)-4-(cyclopentylamino)-N-((1r,4r)-4-(2-(4-(4-(2,6-dioxopiperidin-3-yl)phenyl)piperazin-1-yl)-2-methylpropyl)cyclohexyl)nicotinamide]
8.6 | 230 | N#Cc1cnc2c(cnn2-c2cc(NC3CCC3)c(C(=O)NC3CCC(CCN4CCN(c5ccc(C6CCC(=O)NC6=O)cc5)CC4)CC3)cn2)c1 (centres unmarked) [P-82]
8.1 | 47 | CC(C)(C)Nc1cc(-n2ncc3cc(C#N)cnc32)ncc1C(=O)NC1CCC(CCN2CCN(c3ccc(C4CCC(=O)NC4=O)cc3)CC2)CC1 (centres unmarked) [P-83]
9.7 | 35 | N#Cc1cnc2c(cnn2-c2cc(NC3CC3)c(C(=O)NC3CCC(CCN4CCN(c5ccc(C6CCC(=O)NC6=O)c(Cl)c5)CC4)CC3)cn2)c1 (centres unmarked) [P-84]
11.7 | 117 | N#Cc1cnc2c(cnn2-c2cc(NC3CC3)c(C(=O)NC3CCC(CCN4CCN(c5ccc(C6CCC(=O)NC6=O)nc5)CC4)CC3)cn2)c1 (centres unmarked) [P-85]
11.8 | 90 | CNc1cc(-n2ncc3cc(C#N)cnc32)ncc1C(=O)NC1CCC(CCN2CCN(c3ccc(C4CCC(=O)NC4=O)cc3)CC2)CC1 (centres unmarked) [P-86]
10.5 | 26 | N#Cc1cnc2c(cnn2-c2cc(NC3CCCC3)c(-n3cc([C@H]4CC[C@H](CCN5CCN(c6ccc(C7CCC(=O)NC7=O)cc6)CC5)CC4)nn3)cn2)c1 (some centres unmarked) [P-87, 1-[4-(cyclopentylamino)-5-[4-[4-[2-[4-[4-(2,6-dioxo-3-piperidyl)phenyl]piperazin-1-yl]ethyl]cyclohexyl]triazol-1-yl]-2-pyridyl]pyrazolo[3,4-b]pyridine-5-carbonitrile]
64.5 | 49 | N#Cc1cnc2c(cnn2-c2cc(NC3CC3)c(C(=O)N[C@H]3CC[C@H](OCC4CCN(c5ccc(C6CCC(=O)NC6=O)cc5)CC4)CC3)cn2)c1 (some centres unmarked) [P-88]
10.3 | 23 | N#CCNc1cc(-n2ncc3cc(C#N)cnc32)ncc1C(=O)NC1CCC(CCN2CCN(c3ccc(C4CCC(=O)NC4=O)cc3)CC2)CC1 (centres unmarked) [P-89]

Second part, the compound before the results:

SMILES | ALE THP1 HTRF YMIN [%] | EC50 [nM]
N#Cc1cnc2c(cnn2-c2cc(NC3CCCC3)c(-n3cc([C@H]4CC[C@H](CN5CCN(c6ccc7c(c6)C(=O)N(C6CCC(=O)NC6=O)C7)CC5)CC4)nn3)cn2)c1 (some centres unmarked) [P-55, 1-[4-(Cyclopentylamino)-5-[4-[4-[[4-[2-(2,6-dioxo-3-piperidyl)-3-oxo-isoindolin-5-yl]piperazin-1-yl]methyl]cyclohexyl]triazol-1-yl]-2-pyridyl]pyrazolo[3,4-b]pyridine-5-carbonitrile] | 10.3 | 15
N#Cc1cnc2c(cnn2-c2cc(NC3CCCC3)c(C(=O)NC3CCC(CCN4CCC(c5ccc(C6CCC(=O)NC6=O)cc5)CC4)CC3)cn2)c1 (centres unmarked) [P-56] | 7.7 | 426
C[C@@H]1CN(c2ccc(C3CCC(=O)NC3=O)cc2)C[C@H](C)N1CCC1CCC(NC(=O)c2cnc(-n3ncc4cc(C#N)cnc43)cc2NC2CCCC2)CC1 (some centres unmarked) [P-57] | 9.7 | 194
C[C@@H]1CN(c2ccc(C3CCC(=O)NC3=O)cc2)CCN1CCC1CCC(NC(=O)c2cnc(-n3ncc4cc(C#N)cnc43)cc2NC2CCCC2)CC1 (some centres unmarked) [P-59] | 8.5 | 107
CN(CC1CCC(NC(=O)c2cnc(-n3ncc4cc(C#N)cnc43)cc2NC2CCCC2)CC1)C1CCN(c2ccc(C3CCC(=O)NC3=O)cc2)CC1 (centres unmarked) [P-60] | 11.3 | 945
N#Cc1cnc2c(cnn2-c2cc(NC3CCCC3)c(C(=O)N[C@H]3CC[C@H](CCN4CCN(c5ccc6c(c5)C(=O)N(C5CCC(=O)NC5=O)C6=O)CC4)CC3)cn2)c1 (some centres unmarked) [P-61] | 9.2 | 101
C[C@H]1CN(c2ccc(C3CCC(=O)NC3=O)cc2)CCN1CCC1CCC(NC(=O)c2cnc(-n3ncc4cc(C#N)cnc43)cc2NC2CCCC2)CC1 (some centres unmarked) [P-62] | 6.6 | 70
N#Cc1cnc2c(cnn2-c2cc(N[C@H]3CCC[C@@H]3O)c(C(=O)NC3CCC(CCN4CCN(c5ccc(C6CCC(=O)NC6=O)cc5)CC4)CC3)cn2)c1 (some centres unmarked) [P-63] | 8.3 | 6
CC(C)CNc1cc(-n2ncc3cc(C#N)cnc32)ncc1C(=O)NC1CCC(CCN2CCN(c3ccc(C4CCC(=O)NC4=O)cc3)CC2)CC1 (centres unmarked) [P-64] | 10.1 | 30
CC(F)(F)CNc1cc(-n2ncc3cc(C#N)cnc32)ncc1C(=O)NC1CCC(CCN2CCN(c3ccc(C4CCC(=O)NC4=O)cc3)CC2)CC1 (centres unmarked) [P-65] | 7.3 | 10
N#Cc1cnc2c(cnn2-c2cc(N[C@H]3CCC[C@H]3O)c(C(=O)NC3CCC(CCN4CCN(c5ccc(C6CCC(=O)NC6=O)cc5)CC4)CC3)cn2)c1 (some centres unmarked) [P-66] | 11.2 | 6
C[C@H]1CN(c2ccc(C3CCC(=O)NC3=O)cc2)C[C@H](C)N1CCC1CCC(NC(=O)c2cnc(-n3ncc4cc(C#N)cnc43)cc2NC2CCCC2)CC1 (some centres unmarked) [P-67] | 9.3 | 34
C[C@@H]1CN(c2ccc(C3CCC(=O)NC3=O)cc2)C[C@@H](C)N1CCC1CCC(NC(=O)c2cnc(-n3ncc4cc(C#N)cnc43)cc2NC2CCCC2)CC1 (some centres unmarked) [P-68] | 19.3 | 136
N#Cc1cnc2c(cnn2-c2cc(NC3CCCC3)c(C(=O)N[C@H]3CC[C@H](CN4CCC(COc5ccc(C6CCC(=O)NC6=O)cc5)CC4)CC3)cn2)c1 (some centres unmarked) [P-69] | 15.4 | 417
N#Cc1cnc2c(cnn2-c2cc(Nc3cnn(CC(F)(F)F)c3)c(C(=O)NC3CCC(CCN4CCN(c5ccc(C6CCC(=O)NC6=O)cc5)CC4)CC3)cn2)c1 (centres unmarked) [P-70] | 8.2 | 3
CCNc1cc(-n2ncc3cc(C#N)cnc32)ncc1C(=O)NC1CCC(CCN2CCN(c3ccc(C4CCC(=O)NC4=O)cc3)CC2)CC1 (centres unmarked) [P-71] | 10.9 | 8
N#Cc1cnc2c(cnn2-c2cc(NC3CC3)c(C(=O)NC3CCC(CCN4CCC(c5ccc(C6CCC(=O)NC6=O)cc5)CC4)CC3)cn2)c1 (centres unmarked) [P-72] | 9.5 | 5
O=C1CCC(c2ccc(N3CCN(CCC4CCC(NC(=O)c5cnc(Nc6ccc7ncsc7c6)cc5NC5CCCC5)CC4)CC3)cc2)C(=O)N1 (centres unmarked) [P-73] | 8.1 | 58
N#Cc1cnc2c(cnn2-c2cc(NC3CCOCC3)c(C(=O)NC3CCC(CCN4CCN(c5ccc(C6CCC(=O)NC6=O)cc5)CC4)CC3)cn2)c1 (centres unmarked) [P-74] | 9.4 | 8
